A word on the melting point: it is the temperature, or range, at which the solid turns liquid.

Take `N#Cc1c(N2CCN(C(=O)c3cccs3)CC2)c2cscc2[nH]c1=O`: the melting point came to 263 °C. The value for `O=C(O)c1cc(Cl)ccc1NC(=O)C(CS)Cc1ccccc1` (stereo unspecified) was 157 to 158 °C; that for `COCOc1ccc(-c2ncc3ncc(NC(=O)c4cccnc4)cc3n2)cc1` was 232 °C.

`CCC(C)N(C)C(=O)c1cc(-c2ccccc2)cc2ccccc12` (stereo unspecified) had a melting point of 125 °C.

The compound `Cc1ccc(-c2nc(N)ncc2-c2ccc(=O)[nH]n2)cc1` yielded a melting point of 249 °C. The result for `COCc1nc2c(N)nc3cc(CCC#N)ccc3c2n1CC(C)(C)O` reads 191 to 193 °C. The result for `COc1cc2c(c(OC)c1OC)COc1c(C(F)(F)F)nn(-c3ccc(S(N)(=O)=O)cc3)c1-2` reads 130 °C; that for `CC(C)NC1=NS(=O)(=O)c2sc(Cl)cc2N1`, 281 to 283 °C; that for `O=C(c1ccc(OCc2ccnc3ccccc23)cc1)[NH+]([O-])C1CCN(Cc2ccccc2)CC1` (stereo unspecified), 171 to 173 °C.

Regarding `COC(=O)c1c(C(=O)OC)c2sc3ccccc3n2c1-c1ccc(F)cc1`, the melting point was in the range of 186 to 187 °C. As for `CC(C)c1cc(Oc2ccc(Cl)cc2)nc(C(C)C)c1[N+](=O)[O-]`, the melting point was 102 to 104 °C. The value for `O=C1CCC(=O)N1CCCCSc1ccncc1` was 80 to 81 °C; that for `CCOC(=O)c1c2n(c3cc(N4CCN(Cc5oc(=O)oc5C)CC4)c(F)cc3c1=O)C(C)S2` (stereo unspecified) was 241 to 243 °C.

For the compound `CC(=O)Nc1nc2ccc(S(=O)(=O)n3c(COC(C)C(=O)O)cc4nc(Cl)ccc43)cc2s1` (stereo unspecified), the melting point was in the range of 257 to 260 °C. On to `FC(F)(F)c1cccc(Nc2nccc(-c3ccncc3)n2)c1`, for which the melting point was 197 to 198 °C. The value for `COC(=O)[C@H](CO)NC(=O)c1ncn2c1CN(C)C(=O)c1sccc1-2` was 158 to 160 °C; that for `O=c1nc(-c2ccccc2)c2ccccc2n1CC(F)(F)F` was 182 °C. In turn, `Cc1ccc(CCN2CCN(c3noc4ccccc34)CC2)c2c1C(C)(C)CC(=O)N2` registered a melting point of 170 °C. The value for `C=C1C(=O)OC2C1CCC(CO)=CCCC1(C)OC21` (stereo unspecified) was 172 to 176 °C; that for `Nc1cccc(-c2ccc3nncn3n2)c1` was 225 °C. The value for `COc1cc2c(Nc3ccc(Oc4ccccc4)cc3)c(C#N)cnc2cc1OCCN1CCC(N2CCCCC2)CC1` was 141 °C; that for `COC(=O)C(C(=O)OC)c1ccc2c(c1)C(=O)c1cc3ccccc3cc1C2=O` was 211 to 215 °C. The value for `CC(=O)Oc1ccc(C=Cc2cc(OC(C)=O)cc(OC(C)=O)c2)cc1` was 112 to 113 °C; that for `CC1(C)CC(=C(c2ccc(F)cc2)c2ccc(OCC#N)cc2)CC(C)(C)C1` was 100 to 101 °C. `Cc1nnc(-c2ccc3occ(-c4ccccc4F)c3c2)o1` gave a melting point of 112 to 113 °C. The value for `O=C1NCc2cnc(Nc3ccc(N4CCCCC4CO)cc3)nc2N1C1CCCC1` (stereo unspecified) was 220 to 221 °C. The value for `COC(=O)C(O)C(CC(C)C)NC(=O)C(Cc1c[nH]cn1)NC(=O)C(CC(=O)N1CCCCC1)Cc1cccc2ccccc12` (mixture of isomers) was 91 to 97 °C; that for `NC(=O)N1CC(Oc2ccc(Cl)cc2Cl)C1` was 169 to 170 °C; that for `CSC(C)(C)C=NOC(=O)N(C)SN(C)C` was 48 to 50 °C.

`Cc1nc(-c2ccc3c(c2)CCCC3)c(CO)o1` displayed a melting point of 132 to 133 °C. The value for `Brc1ccc2c(c1)N=C(N1CCOCC1)c1cccc3c1N2CC3` was 216 to 218 °C; that for `Cn1nnnc1SCCCSc1nnnn1C` was 142 to 144 °C. The result for `C=Cc1ccc(COc2ccc(COC(=O)C(=O)OCC)cc2)cc1` reads 93 °C; that for `COc1cc(C(O)CS(C)(=O)=O)cc(OC)c1N(C)C` (stereo unspecified), 147 to 148 °C. The result for `CON(c1ccc(SC)cc1[N+](=O)[O-])S(=O)(=O)c1ccc(C)cc1` reads 110 to 111 °C; that for `O=C(c1ccncc1)c1cc(-c2ccc(Cl)cc2)c(N2CCOCC2)s1`, 117 °C. Compound `Fc1ccc(NC(=S)c2ccccn2)c(F)c1` came in with a melting point of 124 to 129 °C. The result for `CCOC(=O)C1=C(CO)NC(C)=C(C(=O)OCCOCc2ccccc2)C1c1cccc([N+](=O)[O-])c1` (stereo unspecified) reads 112 to 114 °C; that for `CCc1ccc2c(c1)C(=O)CCCC(=O)N2`, 138 to 140 °C; that for `Cc1cc(C)c(NC(=O)CN2CCN(CCSc3nc4ccccc4o3)CC2)c(C)n1`, 159 to 160 °C. The value for `CN(Cc1cc2c3c(c1)c(=O)c(C(=O)NCc1ccc(F)cc1)cn3CC(=O)N2C)C[C@@H](O)c1ccccc1` was 150 to 152 °C; that for `COC(=O)[C@H](Cc1cccc2ccccc12)NC(=O)[C@H](CC(=O)OC(C)(C)C)NC(=O)c1cccc(NC(=O)OCc2ccccc2)c1` was 95 to 98 °C; that for `COc1ccccc1N1CCCN(c2ccnc3sc(C(N)=O)c(N)c23)CC1` was 179 to 184 °C. For the compound `CCCCc1nc(CCO)c[nH]1`, the melting point lay in the range of 92 to 93 °C. The value for `CC1(C)CC(=O)C2=C(C1)NC1=C(C(=O)CC(C)(C)C1)C2c1ccc2c(c1)OCCO2` was more than 300 °C; that for `Cc1ccc(N2C(=O)C(O)=C(C(=O)c3ccc(OC(F)(F)F)cc3)C2c2ccc(Cn3cncn3)cc2)nn1` (stereo unspecified) was 224 °C. The result for `COc1ccc(CC#N)c(Cl)c1Cl` reads 118 to 119 °C; that for `COC(=O)c1ccc(OCCCN(C(N)=O)c2ccc(Cl)cc2)cc1`, 141 to 142 °C; that for `CCN(C)c1nc2sc3c(NCCN4CCOCC4)ncnc3c2c2c1CCC(C)(C)C2`, 144 °C.

For the compound `O=C(O)c1ccccc1C(=O)C=Cc1cc(O)c(O)c([N+](=O)[O-])c1`, the melting point lay within 178 to 180 °C. The result for `O=C1C(=O)c2ccccc2C2=C1SCC1(CCN(c3cnccn3)CC1)O2` reads 255 to 256 °C; that for `CCc1ccc(C=Nc2ccc(C#N)cc2)cc1`, 76.2 to 77 °C. As for `Cn1cnnc1COc1nn2c(-c3cc(Cl)on3)nnc2c2ccccc12`, the melting point was 239 to 241 °C. The value for `Brc1ncccc1-c1cccnc1` was 97 to 98 °C; that for `O=Cc1cccn1-c1ccc(C(=O)O)cc1` was 269 to 270 °C. The result for `COc1cc(OC)c(-c2nc(C)c(-c3cccnc3)[nH]2)cc1Br` reads 246 to 248 °C; that for `COc1ccc(-n2nc(C(F)F)cc2-c2ccc(SC)cc2)cc1`, 100 to 101 °C; that for `COc1cc(CN2CCc3c(sc(N)c3C(=O)c3ccc4ccccc4c3)C2)cc(OC)c1OC`, 127 to 129 °C. The result for `O=C(O)c1ccccc1OCCCN1C(=O)c2ccccc2C1=O` reads 155 to 157 °C; that for `Cn1cncc1C(O)(c1ccc(Cl)cc1)c1ccc2c(c1)C(c1cccc(Cl)c1)=NCc1nnnn1-2` (stereo unspecified), 240 °C. `O=C(O)c1nc2cc(Oc3cccc([N+](=O)[O-])c3)c([N+](=O)[O-])cc2[nH]c1=O` came in with a melting point of 198 to 200 °C.
